Our source for the melting point values is patent US6395260B1, “Topical cosmetic compositions comprising benzaldoximes” (Haarmann & Reimer GmbH, priority 1999, dated 2002).

By melting point is commonly meant the temperature of the solid-liquid transition.

For the molecule `ON=Cc1cc(O)c(O)c(O)c1` [Test compound 2, 3,4,5-trihydroxybenzaldoxime], the melting point was 177 °C (dec.). `CCON=Cc1ccc(OC)c(O)c1` [Test compound 3, 3-hydroxy-4-methoxybenzaldehyde O-ethyloxime] registered a melting point of 61.4 °C.

`CCON=Cc1ccc(O)c(OCC)c1` [Test compound 4, 3-ethoxy-4-hydroxybenzaldehyde O-ethyloxime] registered a melting point of 43 °C. In the case of `ON=Cc1ccc(O)c(O)c1` [Test compound 5, 3,4-dihydroxybenzaldoxime] it was 143 °C (dec.); in that of `COc1ccc(C=NO)cc1O` [Test compound 6, 3-hydroxy-4-methoxybenzaldoxime], 142.4 °C; in that of `CCON=Cc1ccc(O)c(OC)c1` [Test compound 7, 4-hydroxy-3-methoxybenzaldehyde O-ethyloxime], 31.7 °C. As for `Cc1ccc(CON=Cc2ccc(O)c(O)c2)cc1` [Test compound 8, 3,4-dihydroxybenzaldehyde O-(4-methylbenzyl)-oxime], the melting point was 85 to 86 °C. Turning to `CCOc1cc(C=NO)ccc1O` [Test compound 9, 3-ethoxy-4-hydroxybenzaldoxime], the melting point is 189 °C (dec.). In the case of `COc1cc(C=NO)ccc1O` [Test compound 10, 4-hydroxy-3-methoxybenzaldoxime] it was 118.2 °C; in that of `CCON=Cc1ccc(O)c(O)c1` [Test compound 11, 3,4-dihydroxybenzaldehyde O-ethyloxime], 23 °C.
